Test results published in PubChem BioAssay (NCI).
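How tested: cells in 96-well plates exposed to compound for 48 hours at five concentrations. TGI: concentration producing complete growth inhibition.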

Tests used:
Experiment in all cases: NCI tumour cell line growth inhibition, 48 h
DLD-1 colon = system: DLD-1 colon
DMS 114 small cell lung = system: DMS 114 small cell lung
DMS 273 small cell lung = system: DMS 273 small cell lung
KM20L2 colon = system: KM20L2 colon
LXFL 529 NSCLC = system: LXFL 529 NSCLC
M19-MEL melanoma = system: M19-MEL melanoma
SNB-78 CNS = system: SNB-78 CNS
XF 498 CNS = system: XF 498 CNS
HOP-18 NSCLC = system: HOP-18 NSCLC
RXF-631 renal = system: RXF-631 renal
P388 leukemia = system: P388 leukemia
P388/ADR leukemia = system: P388/ADR leukemia
SN12K1 renal = system: SN12K1 renal

Row | SMILES | TGI (DLD-1 colon) | TGI (DMS 114 small cell lung) | TGI (DMS 273 small cell lung) | TGI (KM20L2 colon) | TGI (LXFL 529 NSCLC) | TGI (M19-MEL melanoma) | TGI (SNB-78 CNS) | TGI (XF 498 CNS) | TGI (HOP-18 NSCLC) | TGI (RXF-631 renal) | TGI (P388 leukemia) | TGI (P388/ADR leukemia) | TGI (SN12K1 renal)
1 | CC1=CC(=C(c2ccc(N)c(C)c2)c2ccc(N)c(C)c2)C=CC1=N | > 100 µM | 9.96 µM | 10.8 µM | 14.5 µM | 15 µM | 14.7 µM | 23.4 µM | 11.7 µM |  |  |  |  | 
2 | CC[N+](C)(C)c1ccc(C(=C2C=CC(=[N+](C)C)C=C2)c2ccc(N(C)C)cc2)cc1 | 62.4 µM | 26.7 µM | 25.6 µM |  | 34.1 µM | 25 µM |  | 33.2 µM | > 100 µM | 38.4 µM |  |  | 
3 | COc1cccc2c1C(=O)c1c(O)c3c(c(O)c1C2=O)CC(O)(C(C)=O)CC3OC1CC([N+](C)(C)C)C(O)C(C)O1 (centres undefined) | > 100 µM | > 100 µM | > 100 µM | > 100 µM | > 100 µM | > 100 µM | > 100 µM | 92.2 µM | > 100 µM | > 100 µM |  |  | 
4 | CC(C)OP(=O)(OC(C)C)c1nn(-c2ccc([N+](=O)[O-])cc2)c(=N)s1 | > 100 µM | > 100 µM |  | > 100 µM |  | > 100 µM |  | > 100 µM |  |  |  |  | 
5 | COC(=O)C1C(O)C(C)C(O)C(C)/C=C\C=C(C)C(=O)Nc2c(C)c(OC(C)=O)c3c(c2O)C(=O)C(C)=C2OCOC(=C23)C(C)=CC(C)(O)C(O)C(C)C1O (centres undefined) | 31.4 µM | 52.6 µM | > 75 µM | > 72.8 µM |  |  | > 75 µM |  |  |  | 47.1 µM | > 58.5 µM | > 63.3 µM
